Source: patent publication US9023384B2, “Liposome and method for injecting substance to cell using this liposome” (Tokyo Medical and Dental University, priority 2004, dated 2015)

Experiments:
[1] = tested on: COX-2 mRNA in U2OS cells carrying expressed Cx43; assay: COX-2 expression by RT-PCR after IL-1 stimulation; type: cell-based
Protocol: (§1) Specifically, the U2OS cells used in Example 2 was initially cultured until 80 to 90% density in a 10-cm culture dish, on which a liposome containing the NBD peptide was then allowed to act for 12 hours. In this example, the liposome used was constructed in the same way as in Example 1 except that a solution used contained 50 μL of the NBD peptide.
In FIG. 8, “Cx-U2OS” denotes a result obtained using a liposome having connexon, and “U2OS” denotes a result obtained using a liposome having no connexon. […] Moreover, the suppression of COX-2 expression was not confirmed in the administration of NBD alone, the administration of NBD using the liposome having no Cx43 expression, administration after pretreatment with GA, and the administration of mutant NBD. Furthermore, the NBD effect was not confirmed on U2OS having no Cx43 expression.

[2] = tested on: NFκB activity in U2OS cells carrying expressed Cx43; assay: NF-kB reporter gene assay (intracellular luciferase activity) after IL-1β stimulation; type: cell-based
Description: As schematically shown in FIG. 6, an IKK complex is activated by IL-1β stimulation or the like and thereby phosphorylates IκB. The phosphorylated IκB is further polyubiquitinated and degraded by a pathway in a proteasome system. As a result, the suppressive effect of IκB on NFκB (p50+p65) disappears. The nuclear-imported NFκB increases the transcriptional activity of a gene of interest. A NEMO Binding Domain ((SEQ ID NO:3); hereinafter, NBD) is known to be a sequence present in the C-terminus of IKKβ, one component in the IKK complex, and be necessary for binding with IKKγ (NEMO). The solubilized NBD oligopeptide originally suppresses normal IKK functions through its competitive inhibition of the binding of IKKβ with NEMO and thereby suppresses the nuclear import of NFκB and the transcription of a gene of interest. […] Thus, in this example, a liposome having connexon consisting of Cx43 was used to attempt the administration of the NBD peptide into cells via a gap junction.
as §1, with “peptide. […]” for “peptide.”

| Compound | suppression of IL-1 stimulation-induced rises in COX-2 expression ([1]; cells carrying expressed Cx43) | suppression of IL-1β stimulation-induced rises in NFκB activity ([2]; liposome for 12 hours, then IL-1β for 24 hours, cells carrying expressed Cx43) | suppression of COX-2 expression by NBD administration after pretreatment with GA ([1]; pretreatment with GA) | effect of pretreatment with gap junction inhibitor on the NBD effect on NFκB activity ([2]; pretreatment before NBD administration using Cx43-expressing liposome) |
| --- | --- | --- | --- | --- |
| NBD peptide: NEMO Binding Domain oligopeptide (SEQ ID NO:3), administered without liposome (TALDWSWLQTE; listed as Homo sapiens) | not confirmed | not confirmed | – | – |
| CC1(C)[C@@H](O)CC[C@]2(C)[C@H]3C(=O)C=C4[C@@H]5C[C@@](C)(C(=O)O)CC[C@]5(C)CC[C@@]4(C)[C@]3(C)CC[C@@H]12 [18β-glycyrrhetinic acid] | – | – | not confirmed | suppressed the NBD effect |
